Results taken from patent US9018392B1, “Compounds, compositions and methods for crop enhancement” (Active AgriProducts Inc., priority 2014, dated 2015).

Tested on: wheat
Experiment: Experiment 6 wheat growth, field test conditions
Format: in vivo
Settings: 20 ppm and 40 ppm, alone and combined with CRUISER MAXX™ and DIVIDEND™, 10 days
Protocol: For the Experiments described below, application of 1,2-dimethyl-4-dimethylaminomethyl-5-hydroxy benzimidazole (referred to herein as INTRINSICTM) was by way of seed treatment. Treated seeds were prepared by mixing 1.0 kg of seed and 2.0 mL of an aqueous solution of INTRINSICTM comprising 0.1% potassium hydroxide in a ZIPLOCTM bag. Control seeds were prepared by mixing 1.0 kg of seed and 2.0 mL of aqueous 0.1% potassium hydroxide solution in a ZIPLOCTM bag. The seeds and solutions were sufficiently mixed to wet the seeds. The seeds were dried after being wetted. […] Experiment 6 tested the effects of 20 ppm and 40 ppm INTRINSICTM, alone and combined with known seed treatments (CRUISER […] and […], from SyngentaTM Canada Inc., applied per manufacturer's recommendations), on wheat growth under field test conditions.

Cc1nc2c(CN(C)C)c(O)ccc2n1C [INTRINSIC™, 1,2-dimethyl-4-dimethylaminomethyl-5-hydroxy benzimidazole]
significant increases: root length compared to control seedlings | root surface area compared to control seedlings | root weight compared to control seedlings (another set of tests) | shoot weight compared to control seedlings (another set of tests)
